Assay results reported in patent publication US20190194179A1, “ANTIBIOTIC COMPOUNDS” (DISCUVA LTD., priority 2016, published 2019).
Structures can show the parent of a compound that is named as a salt.

Test system: Neisseria gonorrhoeae
Assay: EC50 determination: plate-based broth growth assay (absorbance at 600 nm) of Neisseria gonorrhoeae
Type: cell-based
Details: absorbance 600 nm after 20 hours at 37° C./5% CO2, read-out: IC50 (Inhibitory concentration) against Neisseria gonorrhoeae
Method in brief: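 Mid-log culture diluted to ~10^5 cells/ml as inoculum and grown 20 hours at 37° C./5% CO2 across a 10-point compound dilution series. Growth read as absorbance at 600 nm; EC50 taken from transformed data as the concentration giving 50% response relative to no-compound controls.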

Row | IC50 [nM] | SMILES
1 | ≤ 100 | Clc1ccc2oc(Nc3nc4cnccc4o3)nc2c1 [Example 164, N-(5-Chlorobenzo[d]oxazol-2-yl)oxazolo[4,5-c]pyridin-2-amine]
2 | ≤ 1000 | FC(F)(F)c1cc2oc(Nc3nc4ccccc4[nH]3)nc2cn1 [Example 166, N-(1H-Benzo[d]imidazol-2-yl)-6-(trifluoromethyl) oxazolo[4,5-c]pyridin-2-amine]
3 | ≤ 1000 | FC(F)(F)c1ccc2oc(Nc3nc4ccccc4[nH]3)nc2c1 [Example 167, N-(1H-Benzo[d]imidazol-2-yl)-5-(trifluoromethyl) benzo[d]oxazol-2-amine]
4 | ≤ 1000 | Clc1ccc2[nH]c(Nc3nc4cnccc4o3)nc2c1 [Example 168, N-(5-Chloro-1H-benzo[d]imidazol-2-yl)oxazolo [4,5-c]pyridin-2-amine]
5 | ≤ 100000 | CN(c1nc2ccccc2o1)c1nc2cnc(C(F)(F)F)cc2o1 [Example 169, N-(benzo[d]oxazol-2-yl)-N-methyl-6-(trifluoromethyl)oxazolo[4,5-c]pyridin-2-amine]
6 | ≤ 1000 | Cc1nccc2oc(Nc3nc4ccccc4o3)nc12 [Example 171, N-(Benzo[d]oxazol-2-yl)-4-methyloxazolo[4,5-c]pyridin-2-amine]
7 | ≤ 10000 | Clc1ccc2oc(Nc3cscn3)nc2c1 [Example 173, 5-Chloro-N-(thiazol-4-yl)benzo[d]oxazol-2-amine]
8 | ≤ 100 | Fc1cc2nc(Nc3nnco3)oc2cc1OC(F)(F)F [Example 174, 5-Fluoro-N-(1,3,4-oxadiazol-2-yl)-6-(trifluoromethoxy)benzo[d]oxazol-2-amine]
9 | ≤ 100 | Clc1ccc2nc(Nc3nnc(C4CC4)o3)oc2c1 [Example 175, 6-Chloro-N-(5-cyclopropyl-1,3,4-oxadiazol-2-yl)benzo[d]ox-azol-2-amine]
10 | ≤ 1000 | Fc1cc(Cl)cc2oc(Nc3nnco3)nc12 [Example 176, 6-Chloro-4-fluoro-N-(1,3,4-oxadiazol-2-yl)benzo[d]ox-azol-2-amine]
11 | ≤ 10000 | Oc1ccc2nc(Nc3nnco3)oc2c1 [Example 177, 2-((1,3,4-Oxadiazol-2-yl)amino)ben-zo[d]oxazol-6-ol]
12 | ≤ 1000 | COC(=O)c1ccc2nc(Nc3nnco3)oc2c1 [Example 178, Methyl 2-((1,3,4-oxadiazol-2-yl)amino)ben-zo[d]oxazole-6-carboxylate]
13 | ≤ 100 | Brc1ccc2nc(Nc3nnco3)oc2c1 [Example 179, 6-Bromo-N-(1,3,4-oxadiazol-2-yl)benzo[d]ox-azol-2-amine]
14 | ≤ 1000 | c1nnc(Nc2nc3ccc(C4CC4)cc3o2)o1 [Example 180, 6-Cyclopropyl-N-(1,3,4-oxadiazol-2-yl)benzo[d]ox-azol-2-amine]
15 | ≤ 10000 | OCc1ccc2nc(Nc3nnco3)oc2c1 [Example 181, (2-((1,3,4-Oxadiazol-2-yl)amino)ben-zo[d]oxazol-6-yl)methanol]
16 | ≤ 100000 | O=C(O)c1nc(Nc2nc3ccc(Cl)cc3o2)co1 [Example 182, 4-((6-chlorobenzo [d]oxazol-2-yl)amino)oxa-zole-2-carboxylic acid]
17 | ≤ 1000 | c1nnc(Nc2nc3ccc(N4CCCC4)cc3o2)o1 [Example 183, N-(1,3,4-oxadiazol-2-yl)-6-(pyrrolidin-1-yl)benzo[d]ox-azol-2-amine]
18 | ≤ 1000 | c1nnc(Nc2nc3ccc(N4CCCCC4)cc3o2)o1 [Example 184, N-(1,3,4-Oxadiazol-2-yl)-6-(piperidin-1-yl)benzo[d]ox-azol-2-amine]
19 | ≤ 10000 | c1nnc(Nc2nc3ccc(N4CCOCC4)cc3o2)o1 [Example 185, 6-Morpholino-N-(1,3,4-oxadiazol-2-yl)benzo[d]ox-azol-2-amine]
20 | ≤ 10000 | O=[N+]([O-])c1ccc2nc(Nc3nnco3)oc2c1 [Example 186, 6-Nitro-N-(1,3,4-oxadiazol-2-yl)benzo[d]ox-azol-2-amine]
21 | ≤ 100 | Cc1cc2oc(Nc3nnco3)nc2cc1Cl [Example 187, 5-Chloro-6-methyl-N-(1,3,4-oxadiazol-2-yl)benzo[d]ox-azol-2-amine]
22 | ≤ 100 | Cc1cc2nc(Nc3nnco3)oc2cc1Cl [Example 188, 6-Chloro-5-methyl-N-(1,3,4-oxadiazol-2-yl)benzo[d]ox-azol-2-amine]
23 | ≤ 100 | Cc1cc(Cl)cc2oc(Nc3nnco3)nc12 [Example 189, 6-Chloro-4-methyl-N-(1,3,4-oxadiazol-2-yl)benzo[d]ox-azol-2-amine]
24 | ≤ 100 | COc1cc2oc(Nc3nnco3)nc2cc1Cl [Example 190, 5-Chloro-6-methoxy-N-(1,3,4-oxadiazol-2-yl)benzo[d]ox-azol-2-amine]
25 | ≤ 100 | FC(F)(F)Oc1cc2oc(Nc3nnco3)nc2cc1Cl [Example 191]
26 | ≤ 10000 | O=C(O)c1ccc2nc(Nc3nnco3)oc2c1 [Example 192, 2-((1,3,4-oxadiazol-2-yl)amino)benzo[d]oxazole-6-carboxylic acid]

Continued, compound first:

Row | SMILES | IC50 [nM]
27 | Cn1cnc(Nc2nc3cc(C(F)(F)F)c(Cl)cc3o2)c1 [Example 140, 6-Chloro-N-(1-methyl-1H-imidazol-4-yl)-5-(trifluoromethyl)benzo[d]oxazol-2-amine] | ≤ 1000
28 | Cc1nnc(Nc2nc3c(C)cc(Cl)cc3o2)[nH]1 [Example 141, 6-Chloro-4-methyl-N-(5-methyl-4H-1,2,4-triazol-3-yl)benzo[d]oxazol-2-amine] | ≤ 1000
29 | COCCn1c(C)nnc1Nc1nc2cc(C(F)(F)F)c(Cl)cc2o1 [Example 142, 6-Chloro-N-(4-(2-methoxyethyl)-5-methyl-4H-1,2,4-triazol-3-yl)-5-(trifluoromethyl)benzo[d]oxazol-2-amine] | ≤ 1000
30 | Cc1nnc(Nc2nc3cc(C(F)(F)F)ccc3o2)n1C [Example 143, N-(4,5-dimethyl-4H-1,2,4-triazol-3-yl)-5-(trifluoromethyl)benzo[d]oxazol-2-amine] | ≤ 1000
31 | Cc1nnc(Nc2nc3cc(C(F)(F)F)c(Cl)cc3n2C)[nH]1 [Example 144, 6-Chloro-1-methyl-N-(5-methyl-4H-1,2,4-triazol-3-yl)-5-(trifluoromethyl)-1H-benzo[d]imidazol-2-amine] | ≤ 100000
32 | FC(F)(F)c1ccc2oc(Nc3nnc(C4CCNCC4)o3)nc2c1 [Example 145, N-(5-(Piperidin-4-yl)-1,3,4-oxadiazol-2-yl)-5-(trifluoromethyl)benzo[d]oxazol-2-amine hydrochloride] | ≤ 100000
33 | FC(F)(F)c1ccc2oc(Nc3nnc([C@@H]4CCCN4)o3)nc2c1 [Example 146, (S)-N-(5-(pyrrolidin-2-yl)-1,3,4-oxadiazol-2-yl)-5-(trifluoromethyl)benzo[d]oxazol-2-amine hydrochloride] | ≤ 1000
34 | FC(F)(F)c1ccc2oc(Nc3nnc(CN4CCNCC4)o3)nc2c1 [Example 147, N-(5-(Piperazin-1-ylmethyl)-1,3,4-oxadiazol-2-yl)-5-(trifluoromethyl)benzo[d]oxazol-2-amine hydrochloride] | ≤ 100000
35 | CC(C)(C)OC(=O)N1CCN(c2nnc(Nc3nc4cc(C(F)(F)F)ccc4o3)o2)CC1 [Example 148, tert-butyl 4-(5-((5-(trifluoromethyl)benzo[d]oxazol-2-yl)amino)-1,3,4-oxadiazol-2-yl)piperazine-1-carboxylate] | ≤ 100000
36 | FC(F)(F)c1cc2oc(Nc3nnco3)nc2cc1Cl [Example 149, 5-Chloro-N-(1,3,4-oxadiazol-2-yl)-6-(trifluoromethyl)benzo[d]oxazol-2-amine] | ≤ 100
37 | Clc1ccc2nc(Nc3nnc[nH]3)oc2c1 [Example 150, 6-Chloro-N-(4H-1,2,4-triazol-3-yl)benzo[d]oxazol-2-amine] | ≤ 1000
38 | Clc1ccc2nc(Nc3nncs3)oc2c1 [Example 151, 6-Chloro-N-(1,3,4-thiadiazol-2-yl)benzo[d]oxazol-2-amine] | ≤ 1000
39 | Clc1cc2nc(Nc3nnco3)oc2cc1Cl [Example 152, 5,6-Dichloro-N-(1,3,4-oxadiazol-2-yl)benzo[d]oxazol-2-amine] | ≤ 100
40 | Cc1nnc(Nc2nc3cc(C(F)(F)F)c(Cl)cc3[nH]2)[nH]1 [Example 153, 6-Chloro-N-(5-methyl-4H-1,2,4-triazol-3-yl)-5-(trifluoromethyl)-1H-benzo[d]imidazol-2-amine] | ≤ 10000
41 | Cc1nnc(Nc2nc3c(C)nccc3o2)o1 [Example 154, 4-Methyl-N-(5-methyl-1,3,4-oxadiazol-2-yl)oxazolo[4,5-c]pyridin-2-amine] | ≤ 10000
42 | CN1CCc2nc(Nc3nc4cc(C(F)(F)F)ccc4o3)oc2C1 [Example 155, 5-Methyl-N-(5-(trifluoromethyl)benzo[d]oxazol-2-yl)-4,5,6,7-tetrahydrooxazolo[5,4-c]pyridin-2-amine] | ≤ 1000
43 | CN1CCc2oc(Nc3nc4cc(C(F)(F)F)ccc4o3)nc2C1 [Example 156, 5-Methyl-N-(5-(trifluoromethyl)benzo[d]oxazol-2-yl)-4,5,6,7-tetrahydrooxazolo[4,5-c]pyridin-2-amine] | ≤ 1000
44 | FC(F)(F)c1ccc2oc(Nc3nc4ccccc4o3)nc2c1 [Example 158, N-(Benzo[d]oxazol-2-yl)-5-(trifluoromethyl) benzo[d]oxazol-2-amine] | ≤ 100
45 | Fc1ccc2oc(Nc3nc4cnccc4o3)nc2c1 [Example 160, N-(5-Fluorobenzo[d]oxazol-2-yl)oxazolo[4,5-c]pyridin-2-amine] | ≤ 100000
46 | FC(F)(F)c1cc2oc(Nc3nc4cnccc4o3)nc2cn1 [Example 161, N-(Oxazolo[4,5-c]pyridin-2-yl)-6-(trifluoromethyl)oxazolo[4,5-c]pyridin-2-amine] | ≤ 100000
47 | Clc1ccc2oc(Nc3nc4ccccc4o3)nc2c1 [Example 162, N-(Benzo[d]oxazol-2-yl)-5-chlorobenzo[d] oxazol-2-amine] | ≤ 100
48 | FC(F)(F)c1cc2oc(Nc3nc4ccccc4o3)nc2cn1 [Example 163, N-(Benzo[d]oxazol-2-yl)-6-(trifluoromethyl) oxazolo[4,5-c]pyridin-2-amine] | ≤ 100
49 | Cc1cc(Nc2nc3ccc(Cl)cc3o2)no1 [Example 172, 6-Chloro-N-(5-methylisoxazol-3-yl)benzo[d]oxazol-2-amine] | ≤ 1000
